What was measured:
HCH cells [1] = assay: Glucosamine uptake assay; format: cell-based, human; conditions: astragalosides 0.1 μM, 24 h, Ctrl 1.00
Description: The HCHs were cultured as described above in Example 7. For the glucosamine uptake test, HCH cells were seeded into 24-well plate at a density of 3×10^4 cells per well and cultured for 24 hours. The cells were then treated in the absence (solvent control) or presence of the astragalosides (0.1 μM) or Astragalus membranaceous extracts (1.0 μg/mL) for another 24 hours. The treated cells were then washed twice with PBS and incubated in glucose and serum free medium (GSFM). After 2 hours, the cells were replaced with fresh GSFM containing 0.2 μCi of [^14C]-Glucosamine (American Radiolabelled Chemicals Inc, ARC, St. Louis, Mo., USA). At the designated time interval, the cells were washed twice with GSFM containing cold glucosamine and then lysed in 200 μL of 2% SDS. Cell lysates were centrifuged at 15000 g for 15 min. Intracellular uptaken glucosamine was determined by transferring 10 μL of the cell lysate to filter-bottomed UniFilter plates (Perkim-Elmer) and counting. The samples were measured for their protein concentration using the BCA protein assay kit as described above. The amount of glucosamine accumulated in the cells was calculated and normalized to protein concentration and uptake rate was expressed as counts per minute per microgram of cell protein (cpm/min/μg).

MMP-1 [2] = assay: Western blot of MMP-1 in pre-treated human chondrocytes (HCHs); format: cell-based; conditions: 0.1 μM, 48 h
MMP-13 [3] = assay: Western blot of MMP-13 in pre-treated human chondrocytes (HCHs); format: cell-based; conditions: 0.1 μM, 48 h
Type II Collagen = assay: Western blot of Type II Collagen in pre-treated human chondrocytes (HCHs); format: cell-based; conditions: PMA-pre-treated HCH culture medium; 0.1 μM, 48 h
MMP-1 [4] = assay: Western blot of MMP-1 in PMA- or IL-1β-pre-treated SW1353 cells (Example 6); format: cell-based, human; conditions: 48 h
Description: (§1) The cells were then plated on 6-cm dishes at a density of 1×10^6 cells/dish for 24 hours prior to any treatment. At the beginning of the experiment, the cells were pre-treated with 100 ng/mL PMA or 10 ng/mL IL-1β for 24 hours. The cells were then treated 0.1 μM Dexamethasone with, various astragaloside compounds (0.1 μM) or extracts of Astragalus membranaceous (1 μg/mL) at indicated dosages for another 48 hours. For control sample, 0.1% DMSO was used as a negative control for these experiments. The conditioned culture mediums were then centrifuged, 2-fold concentrated and collected for assay of collagens or MMPs secreted into the culture medium.
(§2) Western blotting analysis was carried out on both cultured medium and cell lysates, as follows. The cells were washed and lysed in 0.2 mL of lysis buffer (1% NP-40, 50 mM Tris-HCl, pH 7.4, 180 mM NaCl, 1 mM EDTA, 1 mM PMSF, 1 mM NaF, 10 mM Na3VO4) for 30 min at 4° C. After centrifuging at 17500 g for 15 min, the supernatants of cell lysate were also collected. Protein concentration of the samples were measured using the bicinchoninic acid (BCA) protein assay kit according to the manufacturer's protocol (Pierce, Rockford, Ill., USA). Equal amount of protein samples of concentrated conditioned medium (100 μg) or cell lysate supernatants (50 μg) were mixed with an appropriate volume of 4×SDS sampling buffer and separated by 8% SDS-PAGE gel. The protein bands separated in the SDS-PAGE gel were blotted onto a polyvinylidene fluoride (PVDF) membrane. The blotted PVDF membrane was washed twice and blocked in freshly prepared Tris-buffered saline (TBS) containing 0.1% Tween-20 and 7% skim milk (TBST) for 2 hours at room temperature. The PVDF membrane was then incubated with either antibodies against collagen I and III or the housekeeping protein α-tubulin (Santa Cruz Biotechnology, Santa Cruz, Calif.) for 18 hours at 4° C. Horseradish peroxidase-conjugated anti-goat antibody was used as secondary antibody. Signals were visualized by an enhanced chemiluminescence kit (Clonetech, Palo Alto, Calif., USA) followed by exposure to X-ray films.

HCH cells [5] = assay: Proline uptake assay; format: cell-based, human; conditions: astragalosides 0.1 μM, 24 h, Ctrl 1.00
Description: The proline uptake assay was carried out as described below, generally in accordance with the method disclosed in Biochim Biophys Acta. 1104:283-292, 1992, the contents of which are incorporated by reference. Briefly, HCH cells were seeded into a 24-well plate at a density of 3×10^4 cells per well and cultured for 24 hours. The cells were then treated in the absence (solvent control) or presence of the astragalosides (0.1 μM) or Astragalus membranaceous extracts (1.0 μg/mL) for another 24 hours. The treated cells were then washed once with PBS and incubated in amino acid free medium (AAFM) for another 30 min. The treated cells were then replaced with fresh AAFM containing 50 μg/mL of ascorbate and total of 0.5 mM of L-proline containing 1 μCi [^3H] Proline (American Radiolabelled Chemicals Inc, ARC, St. Louis, Mo., USA). At designated time intervals, the cells were washed with AAFM containing cold proline and then lysed in 200 μL of 2% SDS. Cell lysates were centrifuged at 15000 g for 15 min. Intracellular proline uptaken by the cells was determined by transferring 10 μL of the cell lysate to filter-bottomed UniFilter plates (Perkim-Elmer) and counting. The samples were measured for their protein concentrations using the BCA protein assay kit as described above. The amount of proline accumulated in the cells was calculated and normalized to protein concentration. And cellular uptake rate was expressed as nmole of L-proline per minute per […] of cell protein (nmole/min/μg).

MMP-13 [6] = assay: Western blot of MMP-13 in PMA- or IL-1β-pre-treated SW1353 cells (Example 6); format: cell-based, human; conditions: 0.1 μM, 48 h
Description: as §1
as §2, with “The PVDF membrane was then incubated with either antibodies against collagen I and III or the housekeeping protein α-tubulin (Santa Cruz Biotechnology, Santa Cruz, Calif.) for 18 hours at 4° C.” left out

MMP-2 = assay: Zymography of MMP-2 from pre-treated SW1353 cells; format: cell-based, human; conditions: PMA-pre-treated SW1353; 0.1 μM, 24 h
Description: (§3) At the beginning of the experiment, the cells were pre-treated with 100 ng/mL PMA or 10 ng/mL IL-1β for 24 hours. The cells were then treated with 0.1 μM Dexamethasone, various astragaloside compounds (0.1 μM) or extracts of Astragalus membranaceous (1 μg/mL) at indicated dosages for another 24 hours. For control sample, 0.1% DMSO was used as a negative control for these experiments. The conditioned culture mediums were then centrifuged, 2-fold concentrated and collected for assay of collagens or MMPs secreted into the culture medium.
(§4) The proteolytic activities of MMPs from SW1353 cells were measured essentially as described previously (Circ Res, 1999; 85:906-911). The cells were lysed in lysis buffer (1% Triton X-100, 50 mM Tris-Cl, pH 7.4, 180 mM NaCl, 1 mM EDTA). The samples were measured for their protein concentration using the bicinchoninic acid (BCA) protein assay kit as described. Samples of concentrated conditioned medium and cell lysates were mixed with non-reducing electrophoresis loading buffer and subjected to electrophoresis under non-reducing conditions. The electrophoresis was carried out on a 10% SDS-PAGE co-polymerized with 2 mg/mL gelatin or casein (Sigma, St. Louis, Mo. USA). For zymographic analysis of pro-MMP-2 and activated MMP-2, the total 20 μg of culture medium were used for electrophoresis. Following electrophoresis, renaturation of the proteins was achieved by incubating the gels twice in 25 g/L Triton X-100 at room temperature for 10 min. Subsequently the gels were incubated in 50 mM Tris-HCl, pH 7.5 containing 0.2 M NaCl, 0.02% Brij35 and 10 mM CaCl2 at 37° C. for 18 hours. After the gels were stained with Coomassie Brilliant Blue R-250 and destained, zones of proteolytic activities became visible as transparent bands in the stained gel. In order to obtain higher sensitivity, the gels were further destained in a solution of 1% Triton X-100 (1 to 2 hours). This procedure increased the signal-to-noise ratio, allowing the visualization of faint gelatinase bands at 92 kDa, 125 kDa and greater than 200 kDa. Zymograms were read using a Molecular Dynamics (Sunnyvale, Calif., USA) computing laser densitometer with Image Quant software.

MMP-9 = assay: Zymography of MMP-9 from pre-treated SW1353 cells; format: cell-based, human; conditions: PMA-pre-treated SW1353; 0.1 μM, 24 h
Description: as §3, §4

MMP-1 [7] = assay: Zymography of MMP-1 from pre-treated SW1353 cells; format: cell-based, human; conditions: PMA-pre-treated SW1353; 0.1 μM, 24 h
Description: as §3, §4

MMP1 = conditions: UO126 10 μM, SP600125 25 μM, SB203580 5 μM, 24 h, then PMA 100 ng/mL 24 h
Description: The SW1353 cells were grown at 37° C. in a humidified incubator under 5% CO2 and 95% air in the culture medium as described above. The SW1353 cells were then sub-cultured into 6-well culture plates with serum free medium at an average amount of 2×10^5 cells per well and incubated for 24 hours. Then, the SW1353 cells were treated with 10 μM UO126 (MEK1-specific inhibitor), 25 μM, SP600125 (JNK-specific inhibitor), 5 μM SB203580 (p38-specific inhibitor), or 20 μM LY294002 (PI3K kinase inhibitor), and incubated for another 24 hours. Later, the SW1353 cells were treated with 100 ng/mL PMA and again incubated for 24 hours. Finally, the SW1353 cells were under cell extraction and the cell lysate was used for further luciferase analysis and western blotting analysis.
The SW1353 cells were grown at 37° C. in a humidified incubator under 5% CO2 and 95% air in the culture medium as described above. The SW1353 cells were then sub-cultured into 24-well culture plates and cultured for 24 hours. […] Following cell extraction, the cell lysate was centrifuged at 4° C., 20000 g for 30 minutes and then transferred to a 1.5 ml-microcentrifuge tube. Then, 100 μl buffer A (0.1 mM luciferin) and 350 μl buffer B (1 M MgSO4, 1 M Hepes (pH 7.8), 0.1 M ATP) were added into the microcentrifuge tube. The luciferase activity of final mixture was measured by a luminometer for 30 seconds.

[8] = PMA-pre-treated HCH cell extract
[9] = PMA-pre-treated HCH culture medium
[10] = PMA-pre-treated SW1353 culture medium, 0.1 μM
[11] = PMA-pre-treated SW1353 culture medium
[12] = PMA-pre-treated SW1353 cell extract, 0.1 μM
[13] = PMA-pre-treated SW1353 cell extract

| Structure (SMILES) | glucosamine uptake, Relative fold (HCH cells [1]) [fold] | MMP-1, Western blot, relative to Ctrl 1.00 (MMP-1 [2]; [8]) | MMP-1, Western blot, relative to Ctrl 1.00 (MMP-1 [2]; [9]) | MMP-13, Western blot, relative to Ctrl 1.00 (MMP-13 [3]; [8]) | MMP-13, Western blot, relative to Ctrl 1.00 (MMP-13 [3]; [9]) | Type II Collagen, Western blot, relative to Ctrl 1.00 (Type II Collagen) | MMP-1, Western blot, relative to Ctrl 1.00 (MMP-1 [4]; IL-1β-pre-treated SW1353 cell extract, compounds 0.1 μM) | MMP-1, Western blot, relative to Ctrl 1.00 (MMP-1 [4]; IL-1β-pre-treated SW1353 culture medium, 0.1 μM) | MMP-1, Western blot, relative to Ctrl 1.00 (MMP-1 [4]; [10]) | proline uptake, Relative fold (HCH cells [5]) [fold] | MMP-13, Western blot, relative to Ctrl 1.00 (MMP-13 [6]; IL-1β-pre-treated SW1353 culture medium) | MMP-13, Western blot, relative to Ctrl 1.00 (MMP-13 [6]; [11]) | MMP-2, Zymography, relative to Ctrl 1.00 (MMP-2) | MMP-9, Zymography, relative to Ctrl 1.00 (MMP-9) | MMP-1, Western blot, relative to Ctrl 1.00 (MMP-1 [4]; [12]) | MMP-1, Zymography, relative to Ctrl 1.00 (MMP-1 [7]) | MMP-13, Western blot, relative to Ctrl 1.00 (MMP-13 [6]; [13]) | luciferase activity (control group 1 fold, PMA-only group 8 fold) (MMP1) [fold] |
| --- | --- | --- | --- | --- | --- | --- | --- | --- | --- | --- | --- | --- | --- | --- | --- | --- | --- | --- |
| CC(C)(O)C1CC[C@](C)(C2[C@@H](O)C[C@@]3(C)C4C[C@H](OC5OC(CO)C(O)C(O)C5O)C5C(C)(C)[C@@H](O)CCC56CC46CC[C@]23C)O1 (stereo partly drawn) [AA, cycloastragenol 6-O-β-D-glucopyranose] | 1.19 | 0.44 | 0.44 | 0.44 | 0.49 | 1.42 | 0.74 | 0.76 | 0.52 | 2.80 | 0.93 | 0.84 |  |  |  |  |  |  |
| CC(=O)O[C@H]1[C@H](O[C@H]2CC[C@]34C[C@]35CC[C@]3(C)[C@@H]([C@@]6(C)CC[C@@H](C(C)(C)O)O6)[C@@H](O)C[C@@]3(C)[C@@H]5C[C@H](O[C@@H]3O[C@H](CO)[C@@H](O)[C@H](O)[C@H]3O)[C@H]4C2(C)C)OC[C@@H](OC(C)=O)[C@@H]1O [IsoAS1, Isoastragaloside I] | 1.16 |  |  |  |  |  |  |  | 0.77 | 2.82 |  | 1.03 | 1.01 | 0.85 | 0.67 | 0.66 | 1.19 |  |
| CC(=O)O[C@@H]1[C@@H](O)[C@H](O[C@H]2CC[C@]34C[C@]35CC[C@]3(C)[C@@H]([C@@]6(C)CC[C@@H](C(C)(C)O)O6)[C@@H](O)C[C@@]3(C)[C@@H]5C[C@H](O[C@@H]3O[C@H](CO)[C@@H](O)[C@H](O)[C@H]3O)[C@H]4C2(C)C)OC[C@H]1O [IsoAS2, Isoastragaloside II] | 1.07 |  |  |  |  |  |  |  | 0.77 | 1.61 |  | 0.80 | 1.04 | 0.95 | 1.28 | 0.95 | 0.60 |  |
| C[S+]([O-])c1ccc(-c2nc(-c3ccncc3)c(-c3ccc(F)cc3)[nH]2)cc1 (stereo not shown) [SB203580] |  |  |  |  |  |  |  |  |  |  |  |  |  |  |  |  |  | 2 |

Source: patent publication US8168596B2, “Use of cycloartane compounds for treating arthritis” (NuLiv Holding Inc., priority 2008, dated 2012)
